Measurements: BindingDB's records for doi:10.1124/jpet.301.1.37 (National Institutes of Health, 2002)
“And” between values parts separate entries of the source, which are not always exact repeats. Identical values can stand only once.

Key:
VIP peptides [1] = target: T1, VIP peptides (Cavia porcellus, UniProt P04566)
T1 sequence (P04566 whole entry): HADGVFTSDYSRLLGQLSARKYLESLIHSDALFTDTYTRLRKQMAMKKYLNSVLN

VIP peptides [2] = target: T2, VIP peptides (Homo sapiens, UniProt P01282)
T2 sequence (P01282 whole entry): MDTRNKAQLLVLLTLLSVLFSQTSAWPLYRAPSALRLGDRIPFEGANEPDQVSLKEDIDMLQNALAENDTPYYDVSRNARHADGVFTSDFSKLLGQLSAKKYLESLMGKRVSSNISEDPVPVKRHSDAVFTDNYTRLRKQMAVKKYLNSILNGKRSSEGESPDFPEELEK

VIP peptides [3] = target: T3, VIP peptides (Rattus norvegicus, UniProt P01283)
T3 sequence (P01283 whole entry): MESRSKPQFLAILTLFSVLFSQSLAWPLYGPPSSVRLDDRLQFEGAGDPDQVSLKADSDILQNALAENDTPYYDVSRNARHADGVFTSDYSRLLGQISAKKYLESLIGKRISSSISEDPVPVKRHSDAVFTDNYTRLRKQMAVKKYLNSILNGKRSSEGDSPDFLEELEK

| Molecule | Ki (VIP peptides [1]) [nM] | Ki (VIP peptides [2]) | Ki (VIP peptides [3]) |
| --- | --- | --- | --- |
| CC[C@H](C)[C@H](NC(=O)[C@H](CO)NC(=O)[C@H](CC(N)=O)NC(=O)[C@H](CC(C)C)NC(=O)[C@H](Cc1ccc(O)cc1)NC(=O)[C@H](CCCCN)NC(=O)[C@H](CCCCN)NC(=O)[C@@H](NC(=O)[C@H](C)NC(=O)[C@H](CCSC)NC(=O)[C@H](CCC(N)=O)NC(=O)[C@H](CCCCN)NC(=O)[C@H](CCCN=C(N)N)NC(=O)[C@H](CC(C)C)NC(=O)[C@H](CCCN=C(N)N)NC(=O)[C@@H](NC(=O)[C@H](Cc1ccc(O)cc1)NC(=O)[C@H](CC(N)=O)NC(=O)[C@H](CC(=O)O)NC(=O)[C@@H](NC(=O)[C@@H](Cc1ccccc1)NC(=O)[C@@H](NC(=O)[C@H](C)NC(=O)[C@H](CC(=O)O)NC(=O)[C@H](CO)NC(=O)[C@@H](N)Cc1cnc[nH]1)C(C)C)[C@@H](C)O)[C@@H](C)O)C(C)C)C(=O)N[C@@H](CC(C)C)C(=O)N[C@@H](CC(N)=O)C(N)=O [VIP [D-Phe6]] | 400 | 288 nM and 198 nM and 115 nM | 269 nM and 692 nM and 912 nM |
| CC[C@H](C)[C@H](NC(=O)[C@H](CO)NC(=O)[C@H](CC(N)=O)NC(=O)[C@H](CC(C)C)NC(=O)[C@H](Cc1ccc(O)cc1)NC(=O)[C@H](CCCCN)NC(=O)[C@H](CCCCN)NC(=O)[C@@H](NC(=O)[C@H](C)NC(=O)[C@H](CCSC)NC(=O)[C@H](CCC(N)=O)NC(=O)[C@H](CCCCN)NC(=O)[C@H](CCCN=C(N)N)NC(=O)[C@H](CC(C)C)NC(=O)[C@H](CCCN=C(N)N)NC(=O)[C@@H](NC(=O)[C@H](Cc1ccc(O)cc1)NC(=O)[C@H](CC(N)=O)NC(=O)[C@H](CC(=O)O)NC(=O)[C@@H](NC(=O)[C@H](Cc1ccccc1)NC(=O)[C@@H](NC(=O)[C@H](C)NC(=O)[C@H](CC(=O)O)NC(=O)[C@@H](CO)NC(=O)[C@@H](N)Cc1cnc[nH]1)C(C)C)[C@@H](C)O)[C@@H](C)O)C(C)C)C(=O)N[C@@H](CC(C)C)C(=O)N[C@@H](CC(N)=O)C(N)=O [VIP [D-Ser2]] | 8.1 | 1.9 nM and 18.2 nM and 15.9 nM | 4.2 nM and 15.1 nM and 38.9 nM |
| CC[C@H](C)[C@H](NC(=O)[C@H](CO)NC(=O)[C@H](CC(N)=O)NC(=O)[C@H](CC(C)C)NC(=O)[C@H](Cc1ccc(O)cc1)NC(=O)[C@H](CCCCN)NC(=O)[C@H](CCCCN)NC(=O)[C@@H](NC(=O)[C@H](C)NC(=O)[C@H](CCSC)NC(=O)[C@H](CCC(N)=O)NC(=O)[C@H](CCCCN)NC(=O)[C@H](CCCN=C(N)N)NC(=O)[C@H](CC(C)C)NC(=O)[C@H](CCCN=C(N)N)NC(=O)[C@@H](NC(=O)[C@H](Cc1ccc(O)cc1)NC(=O)[C@H](CC(N)=O)NC(=O)[C@H](CC(=O)O)NC(=O)[C@H](NC(=O)[C@H](Cc1ccccc1)NC(=O)[C@@H](NC(=O)[C@H](C)NC(=O)[C@H](CC(=O)O)NC(=O)[C@H](CO)NC(=O)[C@@H](N)Cc1cnc[nH]1)C(C)C)[C@H](C)O)[C@@H](C)O)C(C)C)C(=O)N[C@@H](CC(C)C)C(=O)N[C@@H](CC(N)=O)C(N)=O [VIP [D-Thr7]] | 200 | 162 nM and 288 nM and 214 nM | 87.1 nM and 324 nM and 437 nM |
| CC[C@H](C)[C@H](NC(=O)[C@H](CO)NC(=O)[C@H](CC(N)=O)NC(=O)[C@H](CC(C)C)NC(=O)[C@@H](Cc1ccc(O)cc1)NC(=O)[C@H](CCCCN)NC(=O)[C@H](CCCCN)NC(=O)[C@@H](NC(=O)[C@H](C)NC(=O)[C@H](CCSC)NC(=O)[C@H](CCC(N)=O)NC(=O)[C@H](CCCCN)NC(=O)[C@H](CCCN=C(N)N)NC(=O)[C@H](CC(C)C)NC(=O)[C@H](CCCN=C(N)N)NC(=O)[C@@H](NC(=O)[C@H](Cc1ccc(O)cc1)NC(=O)[C@H](CC(N)=O)NC(=O)[C@H](CC(=O)O)NC(=O)[C@@H](NC(=O)[C@H](Cc1ccccc1)NC(=O)[C@@H](NC(=O)[C@H](C)NC(=O)[C@H](CC(=O)O)NC(=O)[C@H](CO)NC(=O)[C@@H](N)Cc1cnc[nH]1)C(C)C)[C@@H](C)O)[C@@H](C)O)C(C)C)C(=O)N[C@@H](CC(C)C)C(=O)N[C@@H](CC(N)=O)C(N)=O [VIP [D-Tyr22]] | 29.5 | 128 nM and 95.5 nM and 112 nM | 11.8 nM and 28.2 nM and 38.9 nM |
| CC[C@H](C)[C@H](NC(=O)[C@H](CO)NC(=O)[C@H](CC(N)=O)NC(=O)[C@H](CC(C)C)NC(=O)[C@H](Cc1ccc(O)cc1)NC(=O)[C@H](CCCCN)NC(=O)[C@H](CCCCN)NC(=O)[C@H](NC(=O)[C@H](C)NC(=O)[C@H](CCSC)NC(=O)[C@H](CCC(N)=O)NC(=O)[C@H](CCCCN)NC(=O)[C@H](CCCN=C(N)N)NC(=O)[C@H](CC(C)C)NC(=O)[C@H](CCCN=C(N)N)NC(=O)[C@@H](NC(=O)[C@H](Cc1ccc(O)cc1)NC(=O)[C@H](CC(N)=O)NC(=O)[C@H](CC(=O)O)NC(=O)[C@@H](NC(=O)[C@H](Cc1ccccc1)NC(=O)[C@@H](NC(=O)[C@H](C)NC(=O)[C@H](CC(=O)O)NC(=O)[C@H](CO)NC(=O)[C@@H](N)Cc1cnc[nH]1)C(C)C)[C@@H](C)O)[C@@H](C)O)C(C)C)C(=O)N[C@@H](CC(C)C)C(=O)N[C@@H](CC(N)=O)C(N)=O [VIP [D-Val19]] | 34.6 | 10.9 nM and 69.2 nM and 58.9 nM | 6.3 nM and 29.5 nM and 25.1 nM |
| H-HSAAVFTDNYTRLRKQMAVKKYLNSILN-NH2 [VIP Ala3] | 427 | 74.1 nM and 182 nM and 123 nM | 43.7 nM and 245 nM and 148 nM |
| H-HSDAVFTDNYTRLAKQMAVKKYLNSILN-NH2 [VIP Ala14] | 61.6 | 24.6 nM and 174 nM and 111 nM | 30 nM and 45.7 nM and 51.3 nM |
| H-HSDAVFTDNYTRLRKQAAVKKYLNSILN-NH2 [VIP Ala17] | 4 | 0.74 nM and 4.5 nM and 3.9 nM | 1.6 nM and 5 nM and 3.6 nM |
| H-HSDAVFTDNYTRLRKQMAAKKYLNSILN-NH2 [VIP Ala19] | 3.2 | 0.59 nM and 4.1 nM and 2.1 nM | 0.85 nM and 2.8 nM and 2.2 nM |
| H-HSDAVFTDNYTRLRKQMAVKKYANSILN-NH2 [VIP Ala23] | 182 | 26.9 nM and 170 nM and 155 nM | 33.9 nM and 213 nM and 204 nM |
| H-HSDAVFTDNYTRLRKQMAVKKYLNSIAN-NH2 [VIP Ala27] | 2.4 | 0.37 nM and 2.3 nM and 2.5 nM | 0.59 nM and 4.7 nM and 2 nM |

The remaining molecules from weak to strong by Ki (VIP peptides [1]), led by results:

| Ki (VIP peptides [1]) [nM] | Ki (VIP peptides [2]) | Ki (VIP peptides [3]) | Molecule |
| --- | --- | --- | --- |
| 2750 | 724 nM and 1150 nM and 794 nM | 661 nM and 1860 nM and 2340 nM | H-HSDAVATDNYTRLRKQMAVKKYLNSILN-NH2 [VIP Ala16] |
| 56.1 | 53.7 nM and 61.7 nM and 50.1 nM | 12.3 nM and 34.7 nM and 30 nM | H-HSDAVFTDNYTALRKQMAVKKYLNSILN-NH2 [VIP Ala12] |
| 9.5 | 6.6 nM and 7.2 nM and 3.4 nM | 1.9 nM and 9.3 nM and 10 nM | H-HSDAVFTDNYTRARKQMAVKKYLNSILN-NH2 [VIP Ala13] |
| 8.5 | 3.8 nM and 7.6 nM and 7.1 nM | 1.1 nM and 3.2 nM and 2.8 nM | H-HSDAVFTDNYTRLRKQMAVKKALNSILN-NH2 [VIP Ala22] |
| 3.2 | 0.87 nM and 5 nM and 5.1 nM | 0.38 nM and 2.1 nM and 0.51 nM | H-HSDAVFTDNYTRLRKQMAVKAYLNSILN-NH2 [VIP Ala21] |
| 1.6 | 0.29 nM and 1.8 nM and 1.4 nM | 0.16 nM and 1.3 nM and 0.49 nM | H-HSDAVFTDAYTRLRKQMAVKKYLNSILN-NH2 [VIP Ala9] |
